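Values below derive from 48-hour exposures of cells grown in 96-well plates, with endpoints linearly interpolated between the two concentrations bracketing the appropriate inhibition level. GI50: concentration for 50% inhibition of growth. TGI is the concentration that stops growth completely.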
What was measured:
Test in all cases: NCI anticancer screen, dose series, 48 h
786-0 renal = tested on: 786-0 renal
A498 renal = tested on: A498 renal
A549 NSCLC = tested on: A549 NSCLC
ACHN renal = tested on: ACHN renal
BT-549 breast = tested on: BT-549 breast
CAKI-1 renal = tested on: CAKI-1 renal
CCRF-CEM leukemia = tested on: CCRF-CEM leukemia
COLO 205 colon = tested on: COLO 205 colon
DU-145 prostate = tested on: DU-145 prostate
EKVX NSCLC = tested on: EKVX NSCLC
HCC-2998 colon = tested on: HCC-2998 colon
HCT-116 colon = tested on: HCT-116 colon
HCT-15 colon = tested on: HCT-15 colon
HL-60(TB) leukemia = tested on: HL-60(TB) leukemia
HOP-62 NSCLC = tested on: HOP-62 NSCLC
HOP-92 NSCLC = tested on: HOP-92 NSCLC
HS 578T breast = tested on: HS 578T breast
HT29 colon = tested on: HT29 colon
IGROV1 ovarian = tested on: IGROV1 ovarian
K-562 leukemia = tested on: K-562 leukemia
KM12 colon = tested on: KM12 colon
LOX IMVI melanoma = tested on: LOX IMVI melanoma
M14 melanoma = tested on: M14 melanoma
MALME-3M melanoma = tested on: MALME-3M melanoma
MCF7 breast = tested on: MCF7 breast
MDA-MB-231 breast = tested on: MDA-MB-231 breast
MDA-MB-435 = tested on: MDA-MB-435
MDA-MB-468 breast = tested on: MDA-MB-468 breast
MOLT-4 leukemia = tested on: MOLT-4 leukemia
NCI-H226 lung = tested on: NCI-H226 lung
NCI-H23 lung = tested on: NCI-H23 lung
NCI-H460 lung = tested on: NCI-H460 lung
NCI-H522 lung = tested on: NCI-H522 lung
OVCAR-3 ovarian = tested on: OVCAR-3 ovarian
OVCAR-4 ovarian = tested on: OVCAR-4 ovarian
OVCAR-5 ovarian = tested on: OVCAR-5 ovarian
OVCAR-8 ovarian = tested on: OVCAR-8 ovarian
PC-3 prostate = tested on: PC-3 prostate
RPMI-8226 leukemia = tested on: RPMI-8226 leukemia
RXF 393 renal = tested on: RXF 393 renal
SF-268 CNS = tested on: SF-268 CNS
SF-295 CNS = tested on: SF-295 CNS
SF-539 CNS = tested on: SF-539 CNS
SK-MEL-2 melanoma = tested on: SK-MEL-2 melanoma
SK-MEL-28 melanoma = tested on: SK-MEL-28 melanoma
SK-MEL-5 melanoma = tested on: SK-MEL-5 melanoma
SK-OV-3 ovarian = tested on: SK-OV-3 ovarian
SN12C renal = tested on: SN12C renal
SNB-19 CNS = tested on: SNB-19 CNS
SR leukemia = tested on: SR leukemia
SW-620 colon = tested on: SW-620 colon
T-47D breast = tested on: T-47D breast
TK-10 renal = tested on: TK-10 renal
U251 CNS = tested on: U251 CNS
UACC-257 melanoma = tested on: UACC-257 melanoma
UACC-62 melanoma = tested on: UACC-62 melanoma
UO-31 renal = tested on: UO-31 renal

SMILES: Clc1ccccc1Nc1nnc(-c2c[nH]c3ccccc23)o1
- GI50 (786-0 renal): 9.52 µM
- TGI (786-0 renal): 28.1 µM
- GI50 (A498 renal): 18.8 µM
- TGI (A498 renal): 50.8 µM
- GI50 (A549 NSCLC): 1.73 µM
- TGI (A549 NSCLC): > 100 µM
- GI50 (ACHN renal): 1.49 µM
- TGI (ACHN renal): 37.5 µM
- GI50 (BT-549 breast): 2.27 µM
- TGI (BT-549 breast): 34.6 µM
- GI50 (CAKI-1 renal): 0.647 µM
- TGI (CAKI-1 renal): 33.2 µM
- GI50 (CCRF-CEM leukemia): 0.501 µM
- TGI (CCRF-CEM leukemia): 26.5 µM
- GI50 (COLO 205 colon): 0.867 µM
- TGI (COLO 205 colon): 11.7 µM
- GI50 (DU-145 prostate): 2.78 µM
- TGI (DU-145 prostate): 56.9 µM
- GI50 (EKVX NSCLC): 3.05 µM
- TGI (EKVX NSCLC): 77.7 µM
- GI50 (HCC-2998 colon): 1.85 µM
- TGI (HCC-2998 colon): 14.2 µM
- GI50 (HCT-116 colon): 11.9 µM
- TGI (HCT-116 colon): 77.6 µM
- GI50 (HCT-15 colon): 0.35 µM
- TGI (HCT-15 colon): 23.9 µM
- GI50 (HL-60(TB) leukemia): 0.321 µM
- TGI (HL-60(TB) leukemia): 4.56 µM
- GI50 (HOP-62 NSCLC): 4.58 µM
- TGI (HOP-62 NSCLC): 63.5 µM
- GI50 (HOP-92 NSCLC): 11.5 µM
- TGI (HOP-92 NSCLC): 54.6 µM
- GI50 (HS 578T breast): 1.52 µM
- TGI (HS 578T breast): 20.6 µM
- GI50 (HT29 colon): 0.353 µM
- TGI (HT29 colon): 10.3 µM
- GI50 (IGROV1 ovarian): 0.429 µM
- TGI (IGROV1 ovarian): 33.5 µM
- GI50 (K-562 leukemia): 0.308 µM
- TGI (K-562 leukemia): > 100 µM
- GI50 (KM12 colon): 1.57 µM
- TGI (KM12 colon): 28.7 µM
- GI50 (LOX IMVI melanoma): 0.618 µM
- TGI (LOX IMVI melanoma): 19.8 µM
- GI50 (M14 melanoma): 0.71 µM
- TGI (M14 melanoma): 20.2 µM
- GI50 (MALME-3M melanoma): 0.498 µM
- TGI (MALME-3M melanoma): 20.1 µM
- GI50 (MCF7 breast): 0.583 µM
- TGI (MCF7 breast): 21.6 µM
- GI50 (MDA-MB-231 breast): 2.18 µM
- TGI (MDA-MB-231 breast): 23.5 µM
- GI50 (MDA-MB-435): 0.233 µM
- TGI (MDA-MB-435): 0.778 µM
- GI50 (MDA-MB-468 breast): 1.2 µM
- TGI (MDA-MB-468 breast): 4.9 µM
- GI50 (MOLT-4 leukemia): 0.654 µM
- TGI (MOLT-4 leukemia): 23.2 µM
- GI50 (NCI-H226 lung): 5.39 µM
- TGI (NCI-H226 lung): > 100 µM
- GI50 (NCI-H23 lung): 2 µM
- TGI (NCI-H23 lung): 17.1 µM
- GI50 (NCI-H460 lung): 0.787 µM
- TGI (NCI-H460 lung): 15.2 µM
- GI50 (NCI-H522 lung): 0.305 µM
- TGI (NCI-H522 lung): 2.38 µM
- GI50 (OVCAR-3 ovarian): 0.43 µM
- TGI (OVCAR-3 ovarian): 15 µM
- GI50 (OVCAR-4 ovarian): 22.7 µM
- TGI (OVCAR-4 ovarian): > 100 µM
- GI50 (OVCAR-5 ovarian): 4.33 µM
- TGI (OVCAR-5 ovarian): 31.9 µM
- GI50 (OVCAR-8 ovarian): 1.6 µM
- TGI (OVCAR-8 ovarian): 18.1 µM
- GI50 (PC-3 prostate): 1.9 µM
- TGI (PC-3 prostate): 57.6 µM
- GI50 (RPMI-8226 leukemia): 1.31 µM
- TGI (RPMI-8226 leukemia): > 100 µM
- GI50 (RXF 393 renal): 1.52 µM
- TGI (RXF 393 renal): 11.1 µM
- GI50 (SF-268 CNS): 6.89 µM
- TGI (SF-268 CNS): 51.7 µM
- GI50 (SF-295 CNS): 0.316 µM
- TGI (SF-295 CNS): 10.2 µM
- GI50 (SF-539 CNS): 0.708 µM
- TGI (SF-539 CNS): 3.24 µM
- GI50 (SK-MEL-2 melanoma): 0.318 µM
- TGI (SK-MEL-2 melanoma): 1.06 µM
- GI50 (SK-MEL-28 melanoma): 10.4 µM
- TGI (SK-MEL-28 melanoma): 27.3 µM
- GI50 (SK-MEL-5 melanoma): 0.966 µM
- TGI (SK-MEL-5 melanoma): 7.39 µM
- GI50 (SK-OV-3 ovarian): 3.68 µM
- TGI (SK-OV-3 ovarian): 74.9 µM
- GI50 (SN12C renal): 0.93 µM
- TGI (SN12C renal): 21.7 µM
- GI50 (SNB-19 CNS): 0.721 µM
- TGI (SNB-19 CNS): 31.5 µM
- GI50 (SR leukemia): 0.387 µM
- TGI (SR leukemia): > 100 µM
- GI50 (SW-620 colon): 0.479 µM
- TGI (SW-620 colon): 29.1 µM
- GI50 (T-47D breast): 4.1 µM
- TGI (T-47D breast): > 100 µM
- GI50 (TK-10 renal): 8.09 µM
- TGI (TK-10 renal): > 100 µM
- GI50 (U251 CNS): 0.505 µM
- TGI (U251 CNS): 17.5 µM
- GI50 (UACC-257 melanoma): 14.1 µM
- TGI (UACC-257 melanoma): 88.7 µM
- GI50 (UACC-62 melanoma): 0.402 µM
- TGI (UACC-62 melanoma): 17.1 µM
- GI50 (UO-31 renal): 1.82 µM
- TGI (UO-31 renal): 49.7 µM

Source: PubChem BioAssay (NCI)
